The target in assay [1] is Maternal embryonic leucine zipper kinase (Homo sapiens, UniProt Q14680).
Another assay concerns the target Actin-related protein 2 (Homo sapiens, UniProt P61160).
The target in assay [2] is Ribosomal protein S6 kinase alpha-5 (Homo sapiens, UniProt O75582).
For assay [3], the target named is MAP/microtubule affinity-regulating kinase 3 (Homo sapiens, UniProt P27448).
The target of assay [4] is Casein kinase II subunit alpha' (Homo sapiens, UniProt P19784).
The target in assay [5] is Tyrosine-protein kinase SYK (Homo sapiens, UniProt P43405).
Assay [6] has as its target Tyrosine-protein kinase Lyn (Homo sapiens, UniProt P07948).
Assay [7] has as its target Ribosomal protein S6 kinase beta-1 (Homo sapiens, UniProt P23443).
Assay [8] concerns the target T1, Mitogen-activated protein kinase kinase kinase 3 (Homo sapiens, UniProt Q99759).
T1 sequence (Q99759 whole entry): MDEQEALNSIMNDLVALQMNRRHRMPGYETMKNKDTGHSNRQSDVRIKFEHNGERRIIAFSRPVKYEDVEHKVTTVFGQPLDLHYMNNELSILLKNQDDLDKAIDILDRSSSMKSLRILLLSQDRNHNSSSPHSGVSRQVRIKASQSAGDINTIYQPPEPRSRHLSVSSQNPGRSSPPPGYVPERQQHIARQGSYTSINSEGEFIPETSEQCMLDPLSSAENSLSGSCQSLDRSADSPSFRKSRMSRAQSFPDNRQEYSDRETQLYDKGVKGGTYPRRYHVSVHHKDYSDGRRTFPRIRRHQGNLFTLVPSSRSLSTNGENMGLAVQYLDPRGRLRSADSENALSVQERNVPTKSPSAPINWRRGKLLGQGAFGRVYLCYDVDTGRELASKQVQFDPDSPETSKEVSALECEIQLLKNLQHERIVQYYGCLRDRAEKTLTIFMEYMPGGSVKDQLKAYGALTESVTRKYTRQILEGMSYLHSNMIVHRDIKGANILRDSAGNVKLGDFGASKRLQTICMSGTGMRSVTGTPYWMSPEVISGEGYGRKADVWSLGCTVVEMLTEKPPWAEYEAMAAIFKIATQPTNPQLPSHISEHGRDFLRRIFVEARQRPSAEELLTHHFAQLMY

Assay [9] addresses T2, Dual specificity mitogen-activated protein kinase kinase 6 (Homo sapiens, UniProt P52564).
T2 sequence (P52564 whole entry): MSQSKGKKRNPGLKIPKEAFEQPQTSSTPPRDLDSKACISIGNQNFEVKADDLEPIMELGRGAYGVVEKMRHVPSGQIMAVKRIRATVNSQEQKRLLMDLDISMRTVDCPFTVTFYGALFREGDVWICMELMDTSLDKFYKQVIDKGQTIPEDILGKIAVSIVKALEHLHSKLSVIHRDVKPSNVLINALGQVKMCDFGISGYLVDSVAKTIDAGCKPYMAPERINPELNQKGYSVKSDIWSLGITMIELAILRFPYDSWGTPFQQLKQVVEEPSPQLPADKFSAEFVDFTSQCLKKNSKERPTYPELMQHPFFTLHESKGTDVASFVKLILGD

The next assay deals with LIM domain kinase 2 (Homo sapiens, UniProt P53671).
Sequence of LIM domain kinase 2 (P53671 whole entry, the tested form may be a part): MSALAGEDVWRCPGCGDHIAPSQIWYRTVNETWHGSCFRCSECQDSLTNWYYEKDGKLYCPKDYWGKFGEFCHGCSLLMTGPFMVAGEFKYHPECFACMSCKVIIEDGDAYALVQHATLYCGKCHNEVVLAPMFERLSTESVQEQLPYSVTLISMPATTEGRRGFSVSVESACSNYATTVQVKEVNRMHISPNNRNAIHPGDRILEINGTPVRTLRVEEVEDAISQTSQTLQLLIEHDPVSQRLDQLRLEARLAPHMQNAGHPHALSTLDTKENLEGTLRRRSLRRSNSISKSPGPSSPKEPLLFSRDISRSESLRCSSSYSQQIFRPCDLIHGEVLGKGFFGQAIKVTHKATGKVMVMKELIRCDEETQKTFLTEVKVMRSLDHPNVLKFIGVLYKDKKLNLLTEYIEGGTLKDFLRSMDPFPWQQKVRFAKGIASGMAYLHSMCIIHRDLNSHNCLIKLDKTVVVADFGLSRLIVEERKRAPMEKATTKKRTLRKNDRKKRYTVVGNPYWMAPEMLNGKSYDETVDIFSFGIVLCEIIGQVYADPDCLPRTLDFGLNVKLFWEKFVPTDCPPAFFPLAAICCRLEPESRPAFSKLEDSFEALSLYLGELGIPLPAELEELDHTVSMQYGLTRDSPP
Assay [10] concerns the target T3, Serine/threonine-protein kinase D3 (Homo sapiens, UniProt O94806).
T3 sequence (O94806 whole entry): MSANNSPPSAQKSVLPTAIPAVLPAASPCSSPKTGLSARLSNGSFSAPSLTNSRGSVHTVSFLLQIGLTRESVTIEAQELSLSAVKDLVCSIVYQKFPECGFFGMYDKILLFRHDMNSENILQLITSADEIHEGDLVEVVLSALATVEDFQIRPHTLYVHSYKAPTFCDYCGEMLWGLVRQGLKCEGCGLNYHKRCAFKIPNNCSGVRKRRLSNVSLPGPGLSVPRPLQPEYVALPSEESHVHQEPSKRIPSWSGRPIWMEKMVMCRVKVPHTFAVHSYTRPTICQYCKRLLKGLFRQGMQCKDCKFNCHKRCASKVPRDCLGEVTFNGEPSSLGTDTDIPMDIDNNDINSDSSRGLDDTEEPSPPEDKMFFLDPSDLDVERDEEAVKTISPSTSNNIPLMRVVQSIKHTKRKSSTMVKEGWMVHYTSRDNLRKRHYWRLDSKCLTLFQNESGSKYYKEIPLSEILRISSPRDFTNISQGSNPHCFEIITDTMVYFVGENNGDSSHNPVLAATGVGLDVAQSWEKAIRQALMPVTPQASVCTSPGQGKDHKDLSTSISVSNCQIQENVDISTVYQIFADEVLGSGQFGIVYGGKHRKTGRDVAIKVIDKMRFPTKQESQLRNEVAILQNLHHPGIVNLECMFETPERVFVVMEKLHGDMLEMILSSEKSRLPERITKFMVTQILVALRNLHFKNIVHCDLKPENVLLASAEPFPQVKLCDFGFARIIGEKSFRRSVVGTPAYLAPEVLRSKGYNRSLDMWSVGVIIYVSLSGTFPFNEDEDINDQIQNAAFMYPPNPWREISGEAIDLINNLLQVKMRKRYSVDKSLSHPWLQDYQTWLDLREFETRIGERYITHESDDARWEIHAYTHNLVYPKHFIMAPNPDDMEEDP

The target in assay [11] is Dual specificity mitogen-activated protein kinase kinase 1 (Homo sapiens, UniProt Q02750).
Sequence of Dual specificity mitogen-activated protein kinase kinase 1 (Q02750 whole entry): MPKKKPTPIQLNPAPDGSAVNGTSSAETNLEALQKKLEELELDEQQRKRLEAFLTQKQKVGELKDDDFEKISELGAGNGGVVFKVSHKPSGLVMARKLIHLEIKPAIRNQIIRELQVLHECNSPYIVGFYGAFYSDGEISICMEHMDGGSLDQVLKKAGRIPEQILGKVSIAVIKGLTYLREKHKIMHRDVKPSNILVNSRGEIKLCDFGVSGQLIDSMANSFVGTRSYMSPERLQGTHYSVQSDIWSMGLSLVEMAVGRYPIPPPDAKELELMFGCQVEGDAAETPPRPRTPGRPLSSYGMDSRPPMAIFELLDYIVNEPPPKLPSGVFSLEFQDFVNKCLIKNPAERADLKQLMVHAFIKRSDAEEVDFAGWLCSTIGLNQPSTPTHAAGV

Molecules are shown by their SMILES. Calls of active or inactive are those of the source. Rule as the data show it, for most assays here: actives have a measured Kd and inactives only a lower limit. A value given as a limit tells only on which side of the number the result lay.
Also: in the data inactive means no Kd found up to 30 µM.

Sequence of Maternal embryonic leucine zipper kinase (Q14680 whole entry): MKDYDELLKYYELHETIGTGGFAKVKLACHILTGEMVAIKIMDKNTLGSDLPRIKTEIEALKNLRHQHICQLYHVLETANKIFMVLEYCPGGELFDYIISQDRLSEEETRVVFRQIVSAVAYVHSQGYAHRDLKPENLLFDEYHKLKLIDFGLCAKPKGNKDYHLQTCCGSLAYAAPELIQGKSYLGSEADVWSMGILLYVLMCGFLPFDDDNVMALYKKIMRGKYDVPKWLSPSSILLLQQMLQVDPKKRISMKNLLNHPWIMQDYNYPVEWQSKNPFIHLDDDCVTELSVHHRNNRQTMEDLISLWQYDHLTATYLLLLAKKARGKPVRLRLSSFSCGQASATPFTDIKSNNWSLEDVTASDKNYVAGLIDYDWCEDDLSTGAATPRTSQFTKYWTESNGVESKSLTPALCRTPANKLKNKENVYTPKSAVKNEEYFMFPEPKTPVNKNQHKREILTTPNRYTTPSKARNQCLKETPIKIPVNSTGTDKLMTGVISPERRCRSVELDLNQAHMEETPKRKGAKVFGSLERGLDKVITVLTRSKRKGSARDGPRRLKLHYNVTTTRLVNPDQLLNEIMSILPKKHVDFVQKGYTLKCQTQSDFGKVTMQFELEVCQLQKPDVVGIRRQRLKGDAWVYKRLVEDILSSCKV
Sequence of MAP/microtubule affinity-regulating kinase 3 (P27448 whole entry): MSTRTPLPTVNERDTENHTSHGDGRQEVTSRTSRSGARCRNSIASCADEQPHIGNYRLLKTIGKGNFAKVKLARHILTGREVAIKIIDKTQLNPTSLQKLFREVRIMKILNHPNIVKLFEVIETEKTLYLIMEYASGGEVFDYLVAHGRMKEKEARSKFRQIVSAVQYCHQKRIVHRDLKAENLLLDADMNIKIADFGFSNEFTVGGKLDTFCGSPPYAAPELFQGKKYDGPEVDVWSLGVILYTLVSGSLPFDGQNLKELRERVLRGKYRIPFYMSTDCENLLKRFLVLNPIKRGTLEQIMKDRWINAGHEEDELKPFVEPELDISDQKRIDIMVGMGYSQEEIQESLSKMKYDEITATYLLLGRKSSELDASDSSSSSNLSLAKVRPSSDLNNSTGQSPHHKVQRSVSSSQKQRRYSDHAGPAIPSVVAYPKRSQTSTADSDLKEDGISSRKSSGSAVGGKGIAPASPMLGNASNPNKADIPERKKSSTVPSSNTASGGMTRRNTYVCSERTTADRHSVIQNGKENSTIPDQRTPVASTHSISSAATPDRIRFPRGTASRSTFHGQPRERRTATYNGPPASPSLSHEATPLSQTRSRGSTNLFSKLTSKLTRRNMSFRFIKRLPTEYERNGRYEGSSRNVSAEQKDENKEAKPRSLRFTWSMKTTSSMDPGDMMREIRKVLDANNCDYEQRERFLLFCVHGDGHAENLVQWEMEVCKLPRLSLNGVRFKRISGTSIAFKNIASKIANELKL
Sequence of Tyrosine-protein kinase Lyn (P07948 whole entry): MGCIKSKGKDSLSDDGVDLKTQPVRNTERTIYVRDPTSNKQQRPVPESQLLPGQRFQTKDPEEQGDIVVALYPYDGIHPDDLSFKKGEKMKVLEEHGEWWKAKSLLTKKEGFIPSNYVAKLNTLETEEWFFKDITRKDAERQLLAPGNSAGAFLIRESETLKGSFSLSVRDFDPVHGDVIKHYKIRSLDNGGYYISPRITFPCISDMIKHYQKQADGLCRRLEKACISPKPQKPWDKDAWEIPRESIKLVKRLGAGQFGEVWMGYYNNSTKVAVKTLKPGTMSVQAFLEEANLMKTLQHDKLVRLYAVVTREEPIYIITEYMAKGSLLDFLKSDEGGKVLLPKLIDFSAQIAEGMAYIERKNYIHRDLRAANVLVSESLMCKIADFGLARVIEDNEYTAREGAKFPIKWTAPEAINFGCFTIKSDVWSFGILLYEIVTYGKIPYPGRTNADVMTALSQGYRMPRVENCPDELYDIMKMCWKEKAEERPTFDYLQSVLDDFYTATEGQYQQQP
Sequence of Ribosomal protein S6 kinase beta-1 (P23443 whole entry): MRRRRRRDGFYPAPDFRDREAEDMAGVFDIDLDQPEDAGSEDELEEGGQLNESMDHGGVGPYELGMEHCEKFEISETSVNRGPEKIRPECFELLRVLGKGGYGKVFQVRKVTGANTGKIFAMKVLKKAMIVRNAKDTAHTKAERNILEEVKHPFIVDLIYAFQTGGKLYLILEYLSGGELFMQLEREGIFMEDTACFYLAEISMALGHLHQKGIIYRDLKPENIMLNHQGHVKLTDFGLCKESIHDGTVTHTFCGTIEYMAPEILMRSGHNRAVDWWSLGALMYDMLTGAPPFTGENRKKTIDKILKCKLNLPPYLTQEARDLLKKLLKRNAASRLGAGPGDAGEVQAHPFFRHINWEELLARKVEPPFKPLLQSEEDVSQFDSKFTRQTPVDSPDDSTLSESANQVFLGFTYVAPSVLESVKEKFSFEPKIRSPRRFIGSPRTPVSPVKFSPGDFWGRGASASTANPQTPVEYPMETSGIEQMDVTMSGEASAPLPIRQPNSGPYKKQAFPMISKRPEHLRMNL
Sequence of Casein kinase II subunit alpha' (P19784 whole entry): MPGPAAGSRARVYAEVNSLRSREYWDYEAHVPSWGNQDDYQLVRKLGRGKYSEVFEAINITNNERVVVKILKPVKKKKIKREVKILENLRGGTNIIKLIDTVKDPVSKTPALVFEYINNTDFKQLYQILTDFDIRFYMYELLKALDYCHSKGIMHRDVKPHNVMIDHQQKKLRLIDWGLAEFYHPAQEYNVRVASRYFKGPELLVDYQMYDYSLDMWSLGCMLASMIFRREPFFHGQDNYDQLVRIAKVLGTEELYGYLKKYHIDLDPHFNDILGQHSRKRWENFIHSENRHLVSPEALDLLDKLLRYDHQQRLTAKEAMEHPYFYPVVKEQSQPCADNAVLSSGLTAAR
Sequence of Ribosomal protein S6 kinase alpha-5 (O75582 whole entry): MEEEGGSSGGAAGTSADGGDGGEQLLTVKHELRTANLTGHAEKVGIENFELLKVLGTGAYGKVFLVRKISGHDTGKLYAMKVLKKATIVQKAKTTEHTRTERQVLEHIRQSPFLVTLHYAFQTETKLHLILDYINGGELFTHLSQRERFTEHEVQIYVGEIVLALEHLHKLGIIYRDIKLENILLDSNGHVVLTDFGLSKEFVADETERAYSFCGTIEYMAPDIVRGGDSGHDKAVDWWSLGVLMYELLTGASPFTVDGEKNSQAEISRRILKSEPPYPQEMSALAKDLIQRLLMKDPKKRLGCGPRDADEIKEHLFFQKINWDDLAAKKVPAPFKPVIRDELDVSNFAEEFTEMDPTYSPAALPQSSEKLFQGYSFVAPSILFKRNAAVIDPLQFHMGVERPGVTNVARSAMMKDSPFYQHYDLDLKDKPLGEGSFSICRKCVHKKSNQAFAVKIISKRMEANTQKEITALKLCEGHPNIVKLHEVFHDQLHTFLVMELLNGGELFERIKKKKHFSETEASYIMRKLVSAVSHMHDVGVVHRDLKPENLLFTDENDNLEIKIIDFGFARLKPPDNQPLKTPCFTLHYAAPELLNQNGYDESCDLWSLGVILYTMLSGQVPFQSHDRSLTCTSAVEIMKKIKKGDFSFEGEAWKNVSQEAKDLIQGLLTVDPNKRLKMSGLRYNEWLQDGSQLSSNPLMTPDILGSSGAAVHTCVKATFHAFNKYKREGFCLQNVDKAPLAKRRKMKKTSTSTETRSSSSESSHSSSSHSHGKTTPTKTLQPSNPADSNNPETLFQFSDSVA

Broadly, the Kd is the constant that tells how readily two partners part at equilibrium. With `CCn1c(=O)c(-c2cc[nH]n2)cc2c(C)nc(N)nc21` [VOXTALISIB], the Kd (in assay [1]; on Actin-related protein 2; in assay [2]; in assay [3]; in assay [4]; in assay [5]) was > 30 µM (inactive) throughout. The Kd (in assay [6]; in [7]; in assay [8]; in assay [9]; at LIM domain kinase 2; in assay [10]) was > 30 µM (inactive) throughout. In addition, the Kd in assay [11] was > 30 µM (inactive).
As for `Cn1ncc(Cl)c1-c1cc(C(=O)N[C@H](CN)Cc2cccc(F)c2)sc1Cl` [AFURESERTIB], the Kd (in [1]; on Actin-related protein 2; in assay [2]; in [3]; in [4]; in [5]) was > 30 µM (inactive) each time. Further, the Kd (in [6]; in [7]; in [8]; in [9]; at LIM domain kinase 2; in assay [10]) was > 30 µM (inactive) throughout. In addition, in [11], the Kd was > 30 µM (inactive).
Regarding `Cc1cc2c(F)c(Oc3ncnn4cc(OC[C@@H](C)OC(=O)[C@H](C)N)c(C)c34)ccc2[nH]1` [BRIVANIB ALANINATE], the Kd (in assay [1]; at Actin-related protein 2; in assay [2]; in assay [3]; in assay [4]; in assay [5]) was > 30 µM (inactive) in each case. The Kd (in assay [6]; in [7]; in assay [8]; in [9]; on LIM domain kinase 2; in [10]) was > 30 µM (inactive) each time. Further, in assay [11], the Kd is > 30 µM (inactive).
`CN1CCC(CNc2ccc3ncc(-c4cccc(OC(F)(F)F)c4)n3n2)CC1` [SGI-1776]: the Kd in assay [1] was > 30 µM (inactive); at Actin-related protein 2 it was > 30 µM (inactive); in assay [2] it was > 30 µM (inactive); in [3], > 30 µM (inactive); in [4], 7.92 µM (active); in assay [5], > 30 µM (inactive). The Kd (in assay [6]; in assay [7]; in assay [8]; in [9]; at LIM domain kinase 2; in [10]) was > 30 µM (inactive) throughout. In assay [11], the Kd was > 30 µM (inactive).
In the case of `CC[C@H](Nc1ncnc2[nH]cnc12)c1nc2cccc(F)c2c(=O)n1-c1ccccc1` [IDELALISIB], the Kd (in [1]; on Actin-related protein 2; in assay [2]; in [3]; in assay [4]; in [5]) was > 30 µM (inactive) throughout. Besides, the Kd (in assay [6]; in assay [7]; in assay [8]; in assay [9]; at LIM domain kinase 2; in assay [10]) was > 30 µM (inactive) throughout. For the same compound, the Kd in assay [11] is > 30 µM (inactive).
Regarding `COC(=O)N[C@@H](C)CNc1nccc(-c2cn(C(C)C)nc2-c2cc(Cl)cc(NS(C)(=O)=O)c2F)n1` [ENCORAFENIB], the Kd (in assay [1]; on Actin-related protein 2; in assay [2]; in [3]; in [4]; in assay [5]) was > 30 µM (inactive) each time. The Kd in [6] is > 30 µM (inactive); in assay [7] it was > 30 µM (inactive); in [8], > 30 µM (inactive); in assay [9] it was > 30 µM (inactive); on LIM domain kinase 2, 0.096 µM (active); in assay [10], > 30 µM (inactive). Moreover, in assay [11], the Kd was > 30 µM (inactive).
